The record followed here is patent US5594024A, “Centrally actig substituted phenylazacycloalkanes” (priority 1995, dated 1997).

One test has as its target T1, D2 receptors (Rattus norvegicus, UniProt P61169).
T1 construct: Preparation of rat striatal membranes for (3H)-spiperone; from tissue; host or cells: rat striatum (striatal membranes)
As to the kind of experiment: D2 antagonist binding ([3H]-spiperone), rat striatum. On the procedure: D2 antagonist binding. Preparation of rat striatal membranes for (3H)-spiperone (specific activity 21-24 Ci/mmol) binding was carried out in a similar manner as described for D1-binding, Hyttel et al., J. Neural. Transm., 68, 171 (1987).
IC50 values were calculated by semi-log plot and linear regression analysis.

The target in a further test is T2, 5-HT1A (Rattus norvegicus, UniProt P19327).
T2 construct: the whole brain with the exception of the brainstem and cerebellum was rapidly removed; from tissue
T2 sequence (P19327 1-422): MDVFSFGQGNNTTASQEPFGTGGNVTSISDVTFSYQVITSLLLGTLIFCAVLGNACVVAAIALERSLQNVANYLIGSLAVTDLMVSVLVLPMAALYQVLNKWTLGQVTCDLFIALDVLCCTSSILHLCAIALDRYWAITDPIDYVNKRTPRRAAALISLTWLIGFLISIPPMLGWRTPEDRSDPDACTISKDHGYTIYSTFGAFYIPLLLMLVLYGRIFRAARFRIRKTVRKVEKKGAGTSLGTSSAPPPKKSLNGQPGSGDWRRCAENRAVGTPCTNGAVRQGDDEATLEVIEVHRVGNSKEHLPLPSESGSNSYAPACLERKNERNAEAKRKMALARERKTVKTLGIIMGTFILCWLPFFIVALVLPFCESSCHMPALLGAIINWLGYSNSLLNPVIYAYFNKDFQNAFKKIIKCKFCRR
As to the kind of experiment: 5-HT1A radioligand binding ([3H]-8-OH-DPAT). More on the design: species or system rat (male Sprague-Dawley). How it is done:
^b Serotonin 5HT1A ([^3 H]-8OH-DPAT, agonist) rat cortex.
5-HT1A radioligand binding. Male Sprague-Dawley rats (160-225 g) were killed by decapitation and the whole brain with the exception of the brainstem and cerebellum was rapidly removed, weighed and chilled in ice-cold 0.9% NaCl. Each brain was homogenized (Ultra-Turrax, 20 s) in 10 mL ice-cold 50 mM Tris buffer (pH 8.0 at 25° C.) containing 120 mM NaCl, 4 mM CaCl2 and 4 mM MgCl2 and centrifuged at 20,000 g's at 4° C. for 10 minutes. Pellets were resuspended in 10 mL fresh buffer and preincubated for 10 minutes in a 37° C. waterbath and then recentrifuged. Final pellets were homogenized in 100 volumes (w/v) of Tris buffer (as described above) containing 10 μM pargyline. The incubation tubes were kept on ice in triplicates and received 100 μL drug solution in water (or water for total binding) and 1000 μL membrane suspension (corresponds to 10 mg original tissue). The binding experiment was initiated by addition of 100 μL of (3H)-8-OH-DPAT (specific activity 143-158 Ci/mmol) in ascorbic acid (the final incubation concentration was 1 nM (3H)-8-OH-DPAT in 0.1% ascorbic acid). After incubation for 15 minutes at 37° C. the reaction was terminated by separation of the free radioligand from bound by rapid vacuum filtration using a cell harvester equipment (O. M. Teknik, Denmark). The tubes were rinsed with 4 mL and the filters (Whatman GF/F 25 mm) were washed twice with 4 mL ice-cold 0.9% NaCl.
The radioactivity of the filters was measured in a liquid scintillation counter (efficiency 41%) in 5 mL Picofluor®. Specific binding (70-75% of total binding) was defined as the radioactivity displaced by 10 μM 5-HT. IC50 values were calculated by semi-log plot and linear regression analysis.

In test [1] the test system is DA receptor. As to the kind of experiment: DA metabolism (DOPAC, HVA levels) in habituated rats. The format is in vivo, rat (male Sprague-Dawley). As to conditions: for response vs control in vivo at 100 µmol/kg: Rattus norvegicus, 1 h. How it is done: (§1) Footnotes Table 3. The rats were habituated to the motility meters 60 min
The rats were immediately killed after the activity session, striata
(§2) and limbic levels of DOPAC and 5HIAA were measured by means of HPLCEC. *p
(§3) In the experiments with habituated rats no NSD was administered and the animals were killed one hour after drug administration. […] The levels were expressed as % of controls (DOPAC and 5-HIAA see Table 3). The in vivo brain microdialysis experiments were performed in conscious rats as described by Waters et al., Eur. J. Pharm., 187, 425-34 (1990).
(§4) Injection volumes were 5 mL/kg.
After the activity session the rats were killed and the brain levels of HVA and DOPAC were measured (data are expressed as means ±SEM).

In test [2] the test system is 5-HT receptor. As to the kind of experiment: 5-HT metabolism (5-HIAA levels) in habituated rats. The format is in vivo, rat (male Sprague-Dawley). As to conditions: 100 μmol/kg sc. On the procedure:
as §1
SEM. The rats were immediately killed after the activity session, striata
as §2, §3
Injection volumes were 5 mL/kg. […]

The next test has as its system habituated rats. The test is described as follows: Locomotor activity and behavior in habituated rats. The format is in vivo, rat (male Sprague-Dawley). The settings on record: 100 μmol/kg sc, habituated rats; for response vs control in vivo at 100 µmol/kg: Rattus norvegicus, 1 h, read-out: Motor Activity. How it is done:
as §1
prior to the activity session.
as §4
Locomotor activity was measured in rats which were habituated 60 minutes to the activity meters before drug injection. The activity was measured for the subsequent 60 minutes and expressed as % of controls (means ±SEM, n=4).

Test [3] relates to 5-HT receptor. The test is described as follows: 5-HTP accumulation (5-HT synthesis rate) in non-pretreated rats after NSD 1015. The class given is in vivo, rat (male Sprague-Dawley). On the procedure: observations are commented to the right. After the session the rats were
accumulation in the NErich cortical regions and 5HTP in the limbic
as §4

For test [4], the system named is DA receptor. The test is described as follows: DOPA accumulation (DA synthesis rate) in non-pretreated rats after NSD 1015.
Protocol: injected with NSD 1015 (100 mg/kg, i.p.) and then killed 30 min later.
In-vivo determination of rat brain monoamine metabolites and tyrosine and tryptophan hydroxylation (biochemically monitored DA and 5-HT receptor agonist or antagonist activity).
The compounds under evaluation were tested biochemically for central DA and 5-HT receptor (pre- and/or postsynaptic) stimulating and/or blocking activity. The concept of this biochemical screening method is that a DA or 5-HT receptor agonist will stimulate the receptor and through regulatory negative feed-back systems induce a decline in tyrosine or tryptophan hydroxylating activity, respectively, and a subsequent reduction in the synthesis rate of DA and 5-HT in the presynaptic neuron. […] The biochemical experiments and the determinations of Dopa and 5-HTP by means of HPLC with electrochemical detection were performed. The antagonistic effects were seen as increases in the synthesis rate (n=4), as a result of the positive feed-back upregulation of synthesis. The effects on Dopa and 5-HTP accumulation are expressed as % of controls, which were: DOPA limbic system=447±23 ng/g and DOPA striatum=1045±47ng/g, 5-HTP limbic region 241±2 ng/g (Table 2).
Animals used in the biochemical and motor activity experiments were male rats of the Sprague-Dawley strain (ALAB, Sollentuna, Sweden), weighing 200-300 g. The rats were kept 5 per cage with free access to water and food (except for the starved animals for the experiments with per oral administration, who were only allowed water the last 18 hours before testing), at least one week from arrival until used in the experiments.
All substances to be tested were dissolved in saline immediately before use, occasionally with the addition of a few drops of glacial acetic acid and/or moderate heating in order to obtain complete dissolution. Injection volumes were 5 mL/kg.
Analysis of variance (ANOVA) followed by Fischer's test was used for the statistical calculations. P values less than 0.05 were regarded statistically significant.
DOPA accumulation (DA synthesis rate) in non-pretreated rats (Table 2). After the locomotor activity session (see Table 2, above) the rats were injected with the decarboxylase inhibitor NSD 1015 (100 mg/kg, sc) and killed 30 minutes later. The DOPA accumulation in the DA -rich limbic and striatal and the NE-rich cortical (mainly hemispheres) brain areas were expressed as % of saline treated controls.
DOPA accumulation, time course after s.c. and p.o. administration (Table 2). […] NSD 1015 (100 mg/kg, sc) was injected 30 minutes before death. The data are expressed as % of saline treated controls.
Another test has as its system non-pretreated rats. As to the kind of experiment: Locomotor activity and gross behavior in non-habituated (non-pretreated) rats. As to conditions: non-pretreated rats; for Motor Act.: 30 min.
Where [5] appears, read: [3H]-spiperone, rat striatum, read-out: in vitro binding IC50, D2 -spip.
Where [6] appears, read: [3H]-8-OH-DPAT, rat cortex, read-out: in vitro binding IC50, 5HT1A.
Setting [7] is: 100 μmol/kg sc, habituated rats, read-out: DOPAC limbic.
The mark [8] stands for this setting: 100 μmol/kg sc, habituated rats, read-out: DOPAC striatum.
Where [9] appears, read: 100 μmol/kg sc, habituated rats.

Like-named read-outs stand apart in the source and are kept apart here.

T1 sequence (P61169 whole entry): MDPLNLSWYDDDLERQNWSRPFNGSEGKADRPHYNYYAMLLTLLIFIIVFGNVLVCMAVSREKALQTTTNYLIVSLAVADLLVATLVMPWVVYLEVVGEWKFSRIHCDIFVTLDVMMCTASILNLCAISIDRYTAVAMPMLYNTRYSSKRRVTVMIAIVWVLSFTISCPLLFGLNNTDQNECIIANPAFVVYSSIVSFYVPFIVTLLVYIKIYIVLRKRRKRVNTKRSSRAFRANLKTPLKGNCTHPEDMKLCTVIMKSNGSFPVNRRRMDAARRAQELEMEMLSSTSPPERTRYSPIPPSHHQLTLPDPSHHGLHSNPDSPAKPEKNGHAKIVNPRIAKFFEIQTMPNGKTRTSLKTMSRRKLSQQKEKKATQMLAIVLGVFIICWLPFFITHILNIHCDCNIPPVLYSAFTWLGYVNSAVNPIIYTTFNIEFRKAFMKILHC

The IC50 is the concentration needed to halve the response being measured. As for `CCCN1CCC[C@@H](c2cccc(OS(C)(=O)=O)c2)C1` [Compound S-22, S-3-((3-Methylsulfonyl)oxyphenyl-N-n-propyl)piperidine], the IC50 on D2 receptors (setting [5]) came out at 25 µM; on 5-HT1A (setting [6]), 1.7 µM. Moreover, the response vs control in vivo at 100 µmol/kg in the test with DA receptor [1] (setting [7]) came out at 209 ± 11%; in the test with DA receptor [1] (setting [8]), 276 ± 12%; with habituated rats (60 min) it was 550 ± 50%. Besides, the 5-HIAA limbic in the test on 5-HT receptor [2] is reported as 118 ± 11 % of saline treated controls. Further, in the test on habituated rats, the Behavioral observations entry is “Activation”.

Turning to `CN1CCC[C@@H](c2cccc(OS(=O)(=O)C(F)(F)F)c2)C1` [S-(+)-13, S-(+)-3-((3-(Trifluoromethyl)sulfonyl)oxyphenyl-N-methyl)-piperidine], the values for the IC50 at D2 receptors (setting [5]) and at 5-HT1A (setting [6]) were 71 µM and 2.8 µM, respectively. The response vs control in vivo at 100 µmol/kg in the test on DA receptor [1] (setting [7]) amounted to 138 ± 10%; with DA receptor [1] (setting [8]) it was 172 ± 11%; in the test on habituated rats (60 min) it was 135 ± 14%. The 5-HIAA limbic with 5-HT receptor [2] was 109 ± 2 % of saline treated controls. Also, in the test on habituated rats, the Behavioral observations result is on record as “No change”.

On to `C=Cc1cccc([C@@H]2CCCN(CCC)C2)c1` [(-)-R-41], for which, in the test with 5-HT receptor [3] (100 sc), the “5-HTP acc Limbic Region” value is on record as 65 ± 2 % of saline controls. In the test on DA receptor [4] (100 sc), the “DOPA acc Cortex” value is on record as 121 ± 29 % of saline controls and the “DOPA acc Stratium” value was 171 ± 15 % of saline controls. Further, in the test on non-pretreated rats (100 sc), the “Gross Behavioral Observations” value is “No change” and the “Motor Act.” value is reported as 125 ± 13 % of saline controls.

In the case of `C=CCN1CCC[C@@H](c2cccc(OS(=O)(=O)C(F)(F)F)c2)C1` [Compound S-17, S-3-((3-(Trifluoromethyl)sulfonyl)oxyphenyl-N-allyl)piperidine], the IC50 at D2 receptors (setting [5]) came out at 28 µM; at 5-HT1A (setting [6]), 4.2 µM. Besides, the values for the response vs control in vivo at 100 µmol/kg in the test with DA receptor [1] (setting [7]), with DA receptor [1] (setting [8]) and in the test on habituated rats (60 min) were 159 ± 18%, 222 ± 12% and 195 ± 13%, respectively. Further, in the test with 5-HT receptor [2], the 5-HIAA limbic was 93 ± 6 % of saline treated controls. Further, the Behavioral observations entry in the test on habituated rats is recorded as “Activation”.

On to `CCN1CCC[C@@H](c2cccc(C#N)c2)C1` [S-(-)-33, S-(-)-3-(3-Cyanophenyl-N-ethyl)piperidine], for which the IC50 at D2 receptors was 14 µM; at 5-HT1A (setting [6]), 22 µM. The results for the “5-HTP acc Limbic Region” value with 5-HT receptor [3] (25 sc) and in the test on 5-HT receptor [3] (100 sc) were 83 ± 3 % of saline controls and 77 ± 3 % of saline controls, respectively. Besides, the response vs control in vivo at 100 µmol/kg in the test on DA receptor [1] (sc, read-out: DOPAC limbic) came to 153 ± 15%; with DA receptor [1] (sc, read-out: DOPAC striatum) it was 167 ± 8%; in the test with habituated rats (60 min), 431 ± 80%. Also, the Behavioral observations entry in the test with habituated rats is listed as “Activation”. The results for the “DOPA acc Cortex” value with DA receptor [4] (25 sc) and in the test on DA receptor [4] (100 sc) were 108 ± 7 % of saline controls and 137 ± 7 % of saline controls, respectively. Further, the “DOPA acc Stratium” value with DA receptor [4] (25 sc) is given as 282 ± 11 % of saline controls; with DA receptor [4] (100 sc), 318 ± 19 % of saline controls. For the same molecule, the “Gross Behavioral Observations” value is on record as “Weak stimul” in the test with non-pretreated rats (25 sc) and “No change” with non-pretreated rats (100 sc). For the same molecule, the “Motor Act.” value in the test on non-pretreated rats (25 sc) was 157 ± 7 % of saline controls; in the test on non-pretreated rats (100 sc), 113 ± 7 % of saline controls.

For `C=Cc1cccc([C@@H]2CCCN(CCC)C2)c1` [Compound S-41, S-3-(3-Vinylphenyl-N-n-propyl)piperidine], the IC50 on D2 receptors (setting [5]) worked out at 3.5 µM; on 5-HT1A (setting [6]), 0.46 µM. Also, the response vs control in vivo at 100 µmol/kg in the test with DA receptor [1] (sc, read-out: DOPAC limbic) is 136 ± 15%; in the test on DA receptor [1] (sc, read-out: DOPAC striatum), 134 ± 13%; in the test on habituated rats (60 min), 529 ± 204%. In the test on 5-HT receptor [2], the 5-HIAA limbic is on record as 92 ± 14 % of saline treated controls. In addition, the Behavioral observations result in the test with habituated rats is recorded as “Activation”.

In the case of `CN1CCC[C@@H](c2cccc(C#N)c2)C1` [S-(+)-32, S-(+)-3-(3-Cyanophenyl-N-methyl)piperidine], the results for the concentration for half-maximal inhibition (IC50) on D2 receptors (setting [5]) and at 5-HT1A (setting [6]) were 50 µM and 14 µM, respectively. The “5-HTP acc Limbic Region” value was 98 ± 7 % of saline controls in the test with 5-HT receptor [3] (25 sc) and 78 ± 2 % of saline controls in the test with 5-HT receptor [3] (100 sc). In addition, the response vs control in vivo at 100 µmol/kg with DA receptor [1] (sc, read-out: DOPAC limbic) was 110 ± 6%; in the test with DA receptor [1] (sc, read-out: DOPAC striatum), 120 ± 5%. Moreover, the “DOPA acc Cortex” value with DA receptor [4] (25 sc) was 91 ± 5 % of saline controls; in the test on DA receptor [4] (100 sc), 109 ± 12 % of saline controls. Moreover, the results for the “DOPA acc Stratium” value in the test on DA receptor [4] (25 sc) and in the test on DA receptor [4] (100 sc) were 132 ± 9 % of saline controls and 215 ± 6 % of saline controls, respectively. In addition, the “Gross Behavioral Observations” value with non-pretreated rats (25 sc) is reported as “No change”. For the same molecule, the “Motor Act.” value with non-pretreated rats (25 sc) is listed as 128 ± 27 % of saline controls; in the test with non-pretreated rats (100 sc) it was 79 ± 2 % of saline controls.

For the molecule `N#Cc1cccc([C@@H]2CCCNC2)c1` [Compound S-31, S-3-(3-Cyanophenyl)piperidine], the figures for the IC50 on D2 receptors (setting [5]) and on 5-HT1A were 16 µM and 10 µM, respectively. This molecule also yielded a DOPAC limbic with DA receptor [1] (setting [9]) of 153 ± 1%. In addition, the DOPAC striatum with DA receptor [1] (setting [9]) is 167 ± 8 % of saline treated controls. Also, the Behavioral observations entry in the test with habituated rats is reported as “Activation”. For the same molecule, in the test with habituated rats (60 min), the “Motor Activity” value was 431 ± 80 % of saline treated controls.
